What was measured:
hGPR40 [1] = biological target: T1, hGPR40 (Homo sapiens, UniProt O14842); test: FDSS-based intracellular calcium assay; type: cell-based; design: 3xFLAG; expressed in transfected cells; conditions: intracellular Ca2+ response, cells expressing GPR40
Protocol: FDSS-Based Intracellular Calcium Assay
Compounds are dissolved in DMSO and diluted to desired concentrations with assay buffer and added to the cells as 3× solution (20 μL per well). Run fluorescence/luminescence reader FDSS (Hamamatsu) to read intracellular Ca^2+ response.

hGPR40 [2] = biological target: T1, hGPR40; test: GPR40 IP-One HTRF assay in HEK293/GPR40 inducible cell lines; type: cell-based; design: expressed in transfected cells; conditions: HEK293 cells with tetracycline-inducible human GPR40; read-out: hGPR40 IP1 EC50
Protocol: GPR40 IP-One HTRF Assays in HEK293/GPR40 Inducible Cell Lines
Human, mouse and rat GPR40-mediated intracellular IP-One HTRF assays were established using human embryonic kidney HEK293 cells stably transfected with a tetracycline-inducible human, mouse or rat GPR40 receptor. Cells were routinely cultured in growth medium containing DMEM (Gibco Cat. #12430-047), 10% qualified FBS (Sigma, Cat. #F2442), 200 μg/ml hygromycin (Invitrogen, Cat. #16087-010) and 1.5 μg/ml blasticidin (Invitrogen, Cat. #R210-01). About 12-15 million cells were passed into a T175 tissue culture flask (BD FALCON® 353112) with growth medium and incubated for 16-18 hours (overnight) at 370 C with 5% CO2. The next day, assay medium was exchanged with growth medium containing 1000 ng/mL of tetracycline (Fluka Analytical, Cat. #87128) to induce GPR40 expression for 18-24 hours at […] incubator with 5% CO2. After induction, the cells were washed with PBS (Gibco, Cat. #14190-036) and detached with Cell Stripper (CELLGRO®, Cat. #25-056-CL). 10-20 mL growth medium were added to the flask and cells were collected in 50 mL tubes (FALCON®, Cat. #352098) and spun at 1000 RPM for 5 minutes. Culture medium was aspirated and the cells were resuspended in 10 mL of 1× IP-One Stimulation Buffer from the Cisbio IP-One kit (Cisbio, Cat. #62IPAPEJ). The cells were diluted to 1.4×10^6 cells/mL in Stimulation Buffer.
Test compounds were 3-fold, 11-point serially diluted in DMSO in a REMP assay plate (Matrix Cat. #4307) by BIOCEL® (Agilent). The compounds were transferred into an Echo plate (LABCYTE, Cat. #LP-0200) and […] of diluted compounds were transferred to an assay plate (proxi-plate from Perkin Elmer, Cat. #6008289) by Echo acoustic nano dispenser (LABCYTE, model ECHO550). 14 μL of the diluted cells were then added to the assay plate by Thermo (SN 836 330) CombiDrop and incubated at room temperature for 45 minutes. Then 3 μL of IP1 coupled to dye D2 from the Cisbio IP-One kit were added to the assay plate followed by 3 μL of Lumi4TM-Tb cryptate K from the kit. The plate was further incubated at room for 1 hour before reading on the Envision (Perkin Elmer Model2101) with an HTRF protocol. Activation data for the test compound over a range of concentrations was plotted as percentage activation of the test compound (100%=maximum response). After correcting for background [(sample read-mean of low control)/(mean of high control−mean of low control)](low control is DMSO without any compound), EC50 values were determined. The EC50 is defined as the concentration of test compound which produces 50% of the maximal response and was quantified using the 4 parameter logistic equation to fit the data.

T1 sequence (O14842 whole entry): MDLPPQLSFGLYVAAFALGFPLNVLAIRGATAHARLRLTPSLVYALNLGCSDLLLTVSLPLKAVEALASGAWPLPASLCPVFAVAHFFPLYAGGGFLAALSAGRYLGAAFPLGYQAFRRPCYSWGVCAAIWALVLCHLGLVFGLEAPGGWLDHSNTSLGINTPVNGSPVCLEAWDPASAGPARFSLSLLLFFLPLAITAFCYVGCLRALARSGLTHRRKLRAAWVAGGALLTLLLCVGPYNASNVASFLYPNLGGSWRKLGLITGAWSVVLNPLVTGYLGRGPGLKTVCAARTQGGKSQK

| Structure (SMILES) | EC50 (hGPR40 [1]) [nM] | EC50 (hGPR40 [2]) [nM] |
| --- | --- | --- |
| CCOc1ccc(F)c(N2CCC(Oc3ccc(N4N=C(C(F)(F)F)[C@@H](C)[C@@H]4CC(=O)O)cc3)C(CC(C)C)C2)c1 (single isomer, unassigned) [Example 27 (Isomer 1)] | 412 | 90 |
| CCOc1ccc(F)c(N2CCC(Oc3ccc(N4N=C(C(F)(F)F)[C@@H](C)[C@@H]4CC(=O)O)cc3)C(CC(C)C)C2)c1 (single isomer, unassigned) [Example 27 (Isomer 2)] | 34 | 84 |
| COc1ccc(F)c(N2CCC(Oc3ccc(N4N=C(C(F)(F)F)[C@@H](C)[C@@H]4CC(=O)O)cc3)C(F)C2)c1 (single isomer, unassigned) [Example 57 (Isomer 4)] | 66 | 11 |
| CC[C@@H]1C(C(F)(F)F)=NN(c2ccc(OC3CCN(c4cc(OC)ccc4F)CC3)cc2)[C@H]1CC(=O)O (single isomer, unassigned) [Example 88, Isomer 1] | 78 | 18 |
| CC(C)Oc1ccc(F)c(N2CCC(Oc3ccc(N4N=C(C(F)(F)F)[C@@H](C)[C@@H]4CC(=O)O)cc3)C(C)C2)c1 (stereo partly drawn) [Example 12, 2-((4S,5S)-1-(4-((1-(2-Fluoro-5-isopropoxyphenyl)-3-methylpiperidin-4-yl)oxy)phenyl)-4-methyl-3-(trifluoromethyl)-4,5-dihydro-1H-pyrazol-5-yl)acetic acid] | 311 | 253 |
| COc1cc(F)c(F)c(N2CCC(Oc3ccc(N4N=C(C(F)(F)F)[C@@H](C)[C@@H]4CC(=O)O)cc3)CC2)c1 [Example 16, 2-((4S,5S)-1-(4-((1-(2,3-Difluoro-5-methoxyphenyl)piperidin-4-yl)oxy)phenyl)-4-methyl-3-(trifluoromethyl)-4,5-dihydro-1H-pyrazol-5-yl)acetic acid] | 273 | 133 |
| COc1cc(F)cc(N2CCC(Oc3ccc(N4N=C(C(F)(F)F)[C@@H](C)[C@@H]4CC(=O)O)cc3)CC2)n1 [Example 80, 2-((4S,5S)-1-(4-((1-(4-Fluoro-6-methoxypyridin-2-yl)piperidin-4-yl)oxy)phenyl)-4-methyl-3-(trifluoromethyl)-4,5-dihydro-1H-pyrazol-5-yl)acetic acid] | 2560 | – |
| COc1cc(N2CC[C@H](Oc3ccc(N4N=C(C(F)(F)F)[C@@H](C)[C@@H]4CC(=O)O)cc3)[C@@H](C)C2)c(Cl)cn1 [Example 81, Isomer 1, 2-((4S,5S)-1-(4-((1-(5-Chloro-2-methoxypyridin-4-yl)-3-methylpiperidin-4-yl)oxy)phenyl)-4-methyl-3-(trifluoromethyl)-4,5-dihydro-1H-pyrazol-5-yl)acetic acid] | 319 | – |
| COc1cc(N2CCC(Oc3ccc(N4N=C(C(F)(F)F)[C@@H](C)[C@@H]4CC(=O)O)cc3)C(C)C2)c(Cl)cn1 (stereo partly drawn) [Example 81, Isomer 2, 2-((4S,5S)-1-(4-((1-(5-Chloro-2-methoxypyridin-4-yl)-3-methylpiperidin-4-yl)oxy)phenyl)-4-methyl-3-(trifluoromethyl)-4,5-dihydro-1H-pyrazol-5-yl)acetic acid] | 71 | – |
| CCOc1cc(N2CC[C@H](Oc3ccc(N4N=C(C(F)(F)F)[C@@H](C)[C@@H]4CC(=O)O)cc3)[C@@H](C)C2)c(Cl)cn1 [Example 82, 2-((4S,5S)-1-(4-(((3S,4S)-1-(5-Chloro-2-ethoxypyridin-4-yl)-3-methylpiperidin-4-yl)oxy)phenyl)-4-methyl-3-(trifluoromethyl)-4,5-dihydro-1H-pyrazol-5-yl)acetic acid] | 760 | – |
| CCOc1cc(N2CC[C@@H](Oc3ccc(N4N=C(C(F)(F)F)[C@@H](C)[C@@H]4CC(=O)O)cc3)[C@H](C)C2)c(Cl)cn1 [Example 83, 2-((4S,5S)-1-(4-(((3R,4R)-1-(5-Chloro-2-ethoxypyridin-4-yl)-3-methylpiperidin-4-yl)oxy)phenyl)-4-methyl-3-(trifluoromethyl)-4,5-dihydro-1H-pyrazol-5-yl)acetic acid] | 224 | – |
| CCOc1cc(N2CC[C@H](Oc3ccc(N4N=C(C(F)(F)F)[C@@H](C)[C@@H]4CC(=O)O)cc3)[C@@H](C)C2)c(F)cn1 [Example 84, 2-((4S,5S)-1-(4-(((3S,4S)-1-(2-Ethoxy-5-fluoropyridin-4-yl)-3-methylpiperidin-4-yl)oxy)phenyl)-4-methyl-3-(trifluoromethyl)-4,5-dihydro-1H-pyrazol-5-yl)acetic acid] | 2580 | – |
| CCOc1cc(N2CC[C@@H](Oc3ccc(N4N=C(C(F)(F)F)[C@@H](C)[C@@H]4CC(=O)O)cc3)[C@H](C)C2)c(F)cn1 [Example 85, 2-((4S,5S)-1-(4-(((3R,4R)-1-(2-Ethoxy-5-fluoropyridin-4-yl)-3-methylpiperidin-4-yl)oxy)phenyl)-4-methyl-3-(trifluoromethyl)-4,5-dihydro-1H-pyrazol-5-yl)acetic acid] | 277 | – |
| COc1ccc(F)c(N2CCC(Oc3ccc(N4N=C(c5ccc(C#N)cc5)[C@@H](C)[C@@H]4CC(=O)O)cc3)CC2)c1 [Example 91, 2-((4S,5S)-3-(4-Cyanophenyl)-1-(4-((1-(2-fluoro-5-methoxyphenyl)piperidin-4-yl)oxy)phenyl)-4-methyl-4,5-dihydro-1H-pyrazol-5-yl)acetic acid] | 62 | – |
| COC(=O)c1ccc(C2=NN(c3ccc(OC4CCN(c5cc(OC)ccc5F)CC4)cc3)[C@@H](CC(=O)O)[C@@H]2C)cc1 [Example 92, 2-((4S,5S)-1-(4-((1-(2-Fluoro-5-methoxyphenyl)piperidin-4-yl)oxy)phenyl)-3-(4-(methoxycarbonyl)phenyl)-4-methyl-4,5-dihydro-1H-pyrazol-5-yl)acetic acid] | 139 | – |
| CCOc1ccc(F)c(N2CCC(Oc3ccc(N4N=C(c5ccc(C#N)cc5F)[C@@H](C)[C@@H]4CC(=O)O)cc3)CC2)c1 [Example 94, 2-((4S,5S)-3-(4-Cyano-2-fluorophenyl)-1-(4-((1-(5-ethoxy-2-fluorophenyl)piperidin-4-yl)oxy)phenyl)-4-methyl-4,5-dihydro-1H-pyrazol-5-yl)acetic acid] | 59 | – |
| CCOc1ccc(F)c(N2CCC(Oc3ccc(N4N=C(c5ccc(F)cc5)[C@@H](C)[C@@H]4CC(=O)O)cc3)CC2)c1 [Example 95, 2-((4S,5S)-1-(4-((1-(5-Ethoxy-2-fluorophenyl)piperidin-4-yl)oxy)phenyl)-3-(4-fluorophenyl)-4-methyl-4,5-dihydro-1H-pyrazol-5-yl)acetic acid] | 108 | – |
| C[C@@H]1C(C(F)(F)F)=NN(c2ccc(OC3CCN(c4cc(O)ccc4F)CC3)cc2)[C@H]1CC(=O)O [Example 102, 2-((4S,5S)-1-(4-((1-(2-Fluoro-5-hydroxyphenyl)piperidin-4-yl)oxy)phenyl)-4-methyl-3-(trifluoromethyl)-4,5-dihydro-1H-pyrazol-5-yl)acetic acid] | 190 | – |
| COc1ccc(C)c(N2CCC(Oc3ccc(N4N=C(C(F)(F)F)[C@@H](C)[C@@H]4CC(=O)O)cc3)CC2)c1 [Example A2, 2-((4S,5S)-1-(4-(1-(5-Methoxy-2-methylphenyl)piperidin-4-yloxy)phenyl)-4-methyl-3-(trifluoromethyl)-4,5-dihydro-1H-pyrazol-5-yl)acetic acid] | 161 | – |
| COc1cc(N2CC[C@@H](Oc3ccc(N4N=C(C(F)(F)F)[C@@H](C)[C@@H]4CC(=O)O)c(Br)c3)[C@H](C)C2)c(Cl)cn1 [Example A3, 2-((4S,5S)-1-(2-Bromo-4-(((3R,4R)-1-(5-chloro-2-methoxypyridin-4-yl)-3-methylpiperidin-4-yl)oxy)phenyl)-4-methyl-3-(trifluoromethyl)-4,5-dihydro-1H-pyrazol-5-yl)acetic acid] | 844 | – |
| COc1cc(N2CC[C@@H](Oc3ccc(N4N=C(C(F)(F)F)[C@@H](C)[C@@H]4CC(=O)O)cc3Br)[C@H](C)C2)c(Cl)cn1 [Example A4, 2-((4S,5S)-1-(3-Bromo-4-(((3R,4R)-1-(5-chloro-2-methoxypyridin-4-yl)-3-methylpiperidin-4-yl)oxy)phenyl)-4-methyl-3-(trifluoromethyl)-4,5-dihydro-1H-pyrazol-5-yl)acetic acid] | 45 | – |
